From patent US4423039A, “Disaggregated solutions of polypeptides, their preparation and use” (The Hospital for Sick Children, priority 1980, dated 1983) come the findings set out here.

One data set has as its target T1, zinc insulin crystals (Sus scrofa, UniProt P01315).
T1 construct: measures the dissolution times of zinc insulin crystals
Kind of data set: dissolution times of zinc insulin crystals exposed to test solutions (microscope slide assay). It counts as physicochemical, pork. How it is done:
(§1) The test involved transferring pork insulin crystals to a clean microscope slide using the tip of a 25 G needle so that 10 to 30 crystals were distributed in the field of view. A 25 μl aliquot of the test solution was pipetted to form a small droplet which covered the crystals. […] The pH's of the test solutions were measured and the former were adjusted where appropiate to pH 7.5 using 1 N NaOH or 1 N HCl.

For a further data set, the target named is glucagon (Homo sapiens, UniProt P01275). Put plainly: dissolution of glucagon crystals in test solutions (tested as for insulin). The conditions noted are these: 150 mmol solution (pH 7.5) in distilled water. It counts as physicochemical. The procedure:
as §1

Another data set has as its target Neutral pork insulin (Sus scrofa, UniProt P01315). The settings on record: 2.5, 25, 250 and 2,500 mmolar; 5 U/ml neutral pork insulin, 0.1 g copper per 10 ml, shaken at 37° C., pH 7.5, triplicate.
Where [1] appears, read: test solution 150 mmol/l, pH 7.5, 25 μl droplet on pork zinc insulin crystals.

T1 sequence (P01315 25-54 limits assumed): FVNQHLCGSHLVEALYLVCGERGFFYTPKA
T1 sequence (P01315 88-108 limits assumed): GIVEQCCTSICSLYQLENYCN
glucagon, sequence (P01275 53-81 limits assumed, species assumed): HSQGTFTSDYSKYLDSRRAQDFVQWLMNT
Neutral pork insulin, sequence (P01315 25-54 limits assumed): as the sequence (P01315 25-54 limits assumed) above
Description for Neutral pork insulin: Biostatic water was used as the diluent. Neutral pork insulin was added to each to give a final concentration of 5 U/ml. To each sterile 10 ml vial 0.1 g of copper was added. Control vials were prepared exactly as above but no bicarbonate was added. The vials were aggitated on an Eberback shaker at 37° C. The experiment was run in triplicate at pH 7.5.

Regarding `O=CO` [Formic Acid], the “Dissolution Time ± SEM” value on zinc insulin crystals (setting [1]) is greater than 1200 s.
On the same count and under the same terms, the same measure for `CC(O)C(=O)O` (stereo not shown) [Lactic Acid]: greater than 1200 s.
`O=C([O-])O.[Na+]` [Sodium Bicarbonate]: the “Dissolution Time ± SEM” value is 360 ± 20 s on zinc insulin crystals (test solution 25 mmol/l, pH 7.5) and 50 ± 5 s on zinc insulin crystals (setting [1]). Further, the “dissolution time of glucagon” value at glucagon came to 45 ± 12 s. Moreover, the “time vials remained clear (no aggregation) to date” value on Neutral pork insulin is no less than 35 days.
Take `NC(N)=O` [Urea]: the “fraction of insulin crystals dissolved at 300 sec” value on zinc insulin crystals (25 mmol/l, at 300 sec) turned out to be 20%.
